In PubChem BioAssay AID1963440 (Molecular Pharmacology Branch, DTP, NCI, 2024):
pIC50: −log10 of the molar value.

Test system: NCI-H1417 complex spheroids, growth % test/control
Assay: Anticancer human tumor NCI-H1417 cell line growth inhibition [Asc];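 note: spheroids exposed to compounds for 7 days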;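 for viability, T/C: 100% = DMSO vehicle control wells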
Conditions: for pIC50: curve of first compound; for viability, T/C: stronger effect = lower value
How it was run: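 Concentration series start at each agent's clinical Cmax, or at 10 microM when none is established, and drop in half-log steps; agents are applied alone or together to complex spheroids built with HUVEC and hMSC.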

[1] = second compound 0.1 µM, first compound 0.0316 µM
[2] = second compound 0.1 µM, first compound 0.1 µM
[3] = second compound 0.1 µM, first compound 0.316 µM
[4] = second compound 0.1 µM, first compound 1 µM
[5] = second compound 0.316 µM, first compound 0.0316 µM
[6] = second compound 0.316 µM, first compound 0.1 µM
[7] = second compound 0.316 µM, first compound 0.316 µM
[8] = second compound 0.316 µM, first compound 1 µM
[9] = second compound 1 µM, first compound 0.0316 µM
[10] = second compound 1 µM, first compound 0.1 µM
[11] = second compound 1 µM, first compound 0.316 µM
[12] = second compound 1 µM, first compound 1 µM
[13] = second compound 3.16 µM, first compound 0.0316 µM
[14] = second compound 3.16 µM, first compound 0.1 µM
[15] = second compound 3.16 µM, first compound 0.316 µM
[16] = second compound 3.16 µM, first compound 1 µM
[17] = second compound 10 µM, first compound 0.0316 µM
[18] = second compound 10 µM, first compound 0.1 µM
[19] = second compound 10 µM, first compound 0.316 µM
[20] = second compound 10 µM, first compound 1 µM

SMILES: C#Cc1c(F)ccc2cc(O)cc(-c3ncc4c(N5CC6CCC(C5)N6)nc(OCC56CCCN5CC(F)C6)nc4c3F)c12 (stereo not given) + Cc1c(S(C)(=O)=O)c(-c2cc(F)cc(N3CCN(c4ccc(NS(=O)(=O)c5ccc(NC(CCN6CCC(C(=O)OCCCP(=O)(O)O)CC6)CSc6ccccc6)c(S(=O)(=O)C(F)(F)F)c5)cc4)CC3)c2)c(-c2ccc(Cl)cc2)n1C(C)C
- pIC50 (second compound 0.1 µM): 5.24
- pIC50 (second compound 0.316 µM): > 7.50
- pIC50 (second compound 1 µM): > 7.50
- pIC50 (second compound 3.16 µM): > 7.50
- pIC50 (second compound 10 µM): > 7.50
- viability, T/C [1]: 72%
- viability, T/C [2]: 83.9%
- viability, T/C [3]: 71.8%
- viability, T/C [4]: 75.8%
- viability, T/C (second compound 0.1 µM, first compound 3.16 µM): 64.7%
- viability, T/C (second compound 0.1 µM, first compound 10 µM): 35.7%
- viability, T/C [5]: 42.6%
- viability, T/C [6]: 48%
- viability, T/C [7]: 34.8%
- viability, T/C [8]: 20.9%
- viability, T/C (second compound 0.316 µM, first compound 3.16 µM): 12.9%
- viability, T/C (second compound 0.316 µM, first compound 10 µM): 5.66%
- viability, T/C [9]: 12%
- viability, T/C [10]: 10.5%
- viability, T/C [11]: 7.98%
- viability, T/C [12]: 5.31%
- viability, T/C (second compound 1 µM, first compound 3.16 µM): 3.23%
- viability, T/C (second compound 1 µM, first compound 10 µM): 4.53%
- viability, T/C [13]: 3.15%
- viability, T/C [14]: 2.9%
- viability, T/C [15]: 3.53%
- viability, T/C [16]: 1.96%
- viability, T/C (second compound 3.16 µM, first compound 3.16 µM): 1.85%
- viability, T/C (second compound 3.16 µM, first compound 10 µM): 2.61%
- viability, T/C [17]: 2.05%
- viability, T/C [18]: 2.06%
- viability, T/C [19]: 2.12%
- viability, T/C [20]: 1.68%
- viability, T/C (second compound 10 µM, first compound 3.16 µM): 1.15%
- viability, T/C (second compound 10 µM, first compound 10 µM): 2.22%

SMILES: CNC(C)C(=O)NC1CN(S(=O)(=O)c2cccc(S(=O)(=O)N3CCC4CCC(C(=O)NC(c5ccccc5)c5ccccc5)N4C(=O)C(NC(=O)C(C)NC)C3)c2)CCC2CCC(C(=O)NC(c3ccccc3)c3ccccc3)N2C1=O (stereo not given) + Cc1c(S(C)(=O)=O)c(-c2cc(F)cc(N3CCN(c4ccc(NS(=O)(=O)c5ccc(NC(CCN6CCC(C(=O)OCCCP(=O)(O)O)CC6)CSc6ccccc6)c(S(=O)(=O)C(F)(F)F)c5)cc4)CC3)c2)c(-c2ccc(Cl)cc2)n1C(C)C
- pIC50 (second compound 0.1 µM): < 6.00
- pIC50 (second compound 0.316 µM): > 8.50
- pIC50 (second compound 1 µM): > 8.50
- pIC50 (second compound 3.16 µM): > 8.50
- pIC50 (second compound 10 µM): > 8.50
- viability, T/C (second compound 0.1 µM, first compound 0.00316 µM): 94.1%
- viability, T/C (second compound 0.1 µM, first compound 0.01 µM): 95.3%
- viability, T/C [1]: 80.2%
- viability, T/C [2]: 74.7%
- viability, T/C [3]: 84.6%
- viability, T/C [4]: 81.1%
- viability, T/C (second compound 0.316 µM, first compound 0.00316 µM): 42.4%
- viability, T/C (second compound 0.316 µM, first compound 0.01 µM): 47.4%
- viability, T/C [5]: 47.6%
- viability, T/C [6]: 36.8%
- viability, T/C [7]: 38%
- viability, T/C [8]: 39.3%
- viability, T/C (second compound 1 µM, first compound 0.00316 µM): 12.2%
- viability, T/C (second compound 1 µM, first compound 0.01 µM): 10.3%
- viability, T/C [9]: 9.05%
- viability, T/C [10]: 8.75%
- viability, T/C [11]: 4.64%
- viability, T/C [12]: 4.71%
- viability, T/C (second compound 3.16 µM, first compound 0.00316 µM): 3.82%
- viability, T/C (second compound 3.16 µM, first compound 0.01 µM): 2.79%
- viability, T/C [13]: 2.43%
- viability, T/C [14]: 2.42%
- viability, T/C [15]: 2.07%
- viability, T/C [16]: 1.84%
- viability, T/C (second compound 10 µM, first compound 0.00316 µM): 2.6%
- viability, T/C (second compound 10 µM, first compound 0.01 µM): 1.96%
- viability, T/C [17]: 3.22%
- viability, T/C [18]: 1.45%
- viability, T/C [19]: 1.71%
- viability, T/C [20]: 1.47%

SMILES: Cc1nc(N2CCC3(CC2)COC(C)C3N)c(CO)nc1Sc1ccnc(N)c1Cl (stereo not given) + Cc1c(S(C)(=O)=O)c(-c2cc(F)cc(N3CCN(c4ccc(NS(=O)(=O)c5ccc(NC(CCN6CCC(C(=O)OCCCP(=O)(O)O)CC6)CSc6ccccc6)c(S(=O)(=O)C(F)(F)F)c5)cc4)CC3)c2)c(-c2ccc(Cl)cc2)n1C(C)C
- pIC50 (second compound 0.1 µM): < 5.52
- pIC50 (second compound 0.316 µM): > 8.02
- pIC50 (second compound 1 µM): > 8.02
- pIC50 (second compound 3.16 µM): > 8.02
- pIC50 (second compound 10 µM): > 8.02
- viability, T/C (second compound 0.1 µM, first compound 0.00949 µM): 81.4%
- viability, T/C (second compound 0.1 µM, first compound 0.03 µM): 82%
- viability, T/C (second compound 0.1 µM, first compound 0.0949 µM): 71.4%
- viability, T/C (second compound 0.1 µM, first compound 0.3 µM): 64.8%
- viability, T/C (second compound 0.1 µM, first compound 0.949 µM): 64.4%
- viability, T/C (second compound 0.1 µM, first compound 3 µM): 52.6%
- viability, T/C (second compound 0.316 µM, first compound 0.00949 µM): 46.9%
- viability, T/C (second compound 0.316 µM, first compound 0.03 µM): 46.3%
- viability, T/C (second compound 0.316 µM, first compound 0.0949 µM): 32.9%
- viability, T/C (second compound 0.316 µM, first compound 0.3 µM): 23.9%
- viability, T/C (second compound 0.316 µM, first compound 0.949 µM): 13.7%
- viability, T/C (second compound 0.316 µM, first compound 3 µM): 12.2%
- viability, T/C (second compound 1 µM, first compound 0.00949 µM): 12.4%
- viability, T/C (second compound 1 µM, first compound 0.03 µM): 9.91%
- viability, T/C (second compound 1 µM, first compound 0.0949 µM): 6.5%
- viability, T/C (second compound 1 µM, first compound 0.3 µM): 3.75%
- viability, T/C (second compound 1 µM, first compound 0.949 µM): 1.89%
- viability, T/C (second compound 1 µM, first compound 3 µM): 0.84%
- viability, T/C (second compound 3.16 µM, first compound 0.00949 µM): 2.34%
- viability, T/C (second compound 3.16 µM, first compound 0.03 µM): 2.47%
- viability, T/C (second compound 3.16 µM, first compound 0.0949 µM): 1.68%
- viability, T/C (second compound 3.16 µM, first compound 0.3 µM): 1.09%
- viability, T/C (second compound 3.16 µM, first compound 0.949 µM): 0.67%
- viability, T/C (second compound 3.16 µM, first compound 3 µM): 0.5%
- viability, T/C (second compound 10 µM, first compound 0.00949 µM): 2.47%
- viability, T/C (second compound 10 µM, first compound 0.03 µM): 2.41%
- viability, T/C (second compound 10 µM, first compound 0.0949 µM): 1.78%
- viability, T/C (second compound 10 µM, first compound 0.3 µM): 1.37%
- viability, T/C (second compound 10 µM, first compound 0.949 µM): 1.05%
- viability, T/C (second compound 10 µM, first compound 3 µM): 1.2%
